Patent US6110400A, “Fulgimide compound and use thereof and composition containing said compound” (Tokuyama Corporation, priority 1996, dated 2000)

Assay: Color development of photochromic cured product (color density, maximum absorption wavelength), xenon lamp 120 seconds
Assay type: physicochemical
Description: To 100 parts by weight of a polymerizable monomer consisting of 45 parts by weight of 4G, 45 parts by weight of 3PG, 9 parts by weight of GMA and 1 part by weight of MSD were added 0.05 part by weight of fulgimide compound I-(1) and 1 part by weight of Perbutyl ND as a polymerization catalyst. The solution was stirred thoroughly until the content thereof was completely dissolved. The solution was poured into a mold constituted by a glass plate and a gasket composed of an ethylene-vinyl acetate copolymer. The mold was placed in an air oven and the solution therein was subjected to polymerization at 35 to 90° C. for 20 hours. After the completion of the polymerization, the obtained photochromic cured product was removed from the glass plate of the mold.
The obtained photochromic cured product having a thickness of 2 mm was exposed to the light emitted from a xenon lamp, model L-2480 (300 W) SHL-100, manufactured by Hamamatsu Photonics, through Aero Mass Filter (a product of Corning Co.), at 20±1° C. for 120 seconds at a beam intensity (on the polymer surface of 365 nm=2.4 mW/cm^2 and 254 nm=24 μW/cm^2, whereby the cured product was allowed to develop a color. A value [ε (120 seconds)-ε (0 seconds)] was calculated and taken as the "color density" of the developed color. In the above expression, ε (120 seconds) is an absorbance at maximum absorption wavelength after 120 seconds of irradiation, and ε (0 seconds) is an absorbance at maximum absorption wavelength under no irradiation. […]
The procedure of Example 15 was repeated except that the composition of the polymerizable monomer was changed as shown in Table 2. […]

[1] = maximum absorption wavelength, monomers 3PG:45,4G:45,GMA:9,MSD:1
[2] = monomers 3PG:45,4G:45,GMA:9,MSD:1, 0.05 part fulgimide, 2 mm, 20±1° C., 120 seconds irradiation
[3] = Ex. 29, monomers 4G:65,3G:15,GMA:9,MS:8,HEMA:2,MSD:1
[4] = Ex. 30, monomers BR-MA:20,BzMA:25,3PG:37,GMA:9,MS:8,MSD:1
[5] = Ex. 31, monomers BPE-100N:45,3G:37,GMA:9,MS:8,MSD:1

| max [1] [nm] | Color density [2] [Abs] | Compound | other results |
| --- | --- | --- | --- |
| 555 | 0.51 | CC1=C2C(=O)N(c3ccccc3)C(=O)C2C2(c3sc(-c4ccccc4)cc31)C1CC3CC(C1)CC2C3 (stereo not drawn) [Fulgimide compound A] |  |
| 570 | 0.64 | CC1=C2C(=O)N(c3ccccc3C#N)C(=O)C2C2(c3sc(-c4ccccc4)cc31)C1CC3CC(C1)CC2C3 (stereo not drawn) [Fulgimide compound B, reference compound] |  |
| 570 | 0.63 | CC1=C2C(=O)N(c3ccc(C#N)cc3)C(=O)C2C2(c3sc(-c4ccccc4)cc31)C1CC3CC(C1)CC2C3 (stereo not drawn) [Fulgimide compound C, reference compound] |  |
| 568 | 0.72 | CC1=C2C(=O)N(CC#N)C(=O)C2C2(c3sc(-c4ccccc4)cc31)C1CC3CC(C1)CC2C3 (stereo not drawn) [Fulgimide compound D, reference compound] |  |
| 620 | 0.74 | CC1=C2C(=O)N(C#N)C(=O)C2C2(c3sc(-c4ccccc4)cc31)C1CC3CC(C1)CC2C3 (stereo not drawn) [Fulgimide compound E, reference compound] |  |
| 578 | 0.78 | COc1ccc(-c2cc3c(s2)C2(C4CC5CC(C4)CC2C5)C2C(=O)N(CC#N)C(=O)C2=C3C)cc1 (stereo not drawn) [Fulgimide compound F, reference compound] |  |
| 582 | 1.33 | COc1ccc(-c2cc3c(s2)C2(C4CC5CC(C4)CC2C5)C2C(=O)N(c4cccc(C#N)c4)C(=O)C2=C3C)cc1 (stereo not drawn) [I-(1), N-(3'-cyanophenyl)-6,7-dihydro-4-methyl-2-(4'-methoxyphenyl)spirobenzothiophenecarboxyimide-7,2'-tricyclo[3.3.1.13,7]decane] | Color density [3]: 1.28 Abs; max [3]: 584 nm; Color density [4]: 1.29 Abs; max [4]: 590 nm; Color density [5]: 1.11 Abs; max [5]: 590 nm; Color density (Ex. 32, monomer 4G:100): 1.41 Abs; max (Ex. 32, monomer 4G:100): 584 nm |
| 570 | 1.25 | CC1=C2C(=O)N(c3cccc(C#N)c3)C(=O)C2C2(c3sc(-c4ccccc4)cc31)C1CC3CC(C1)CC2C3 (stereo not drawn) [I-(2), N-(3'-cyanophenyl)-6,7-dihydro-4-methyl-2-phenylspirobenzothiophenecarboxyimide-7,2'-tricyclo[3.3.1.13,7]decane] |  |
| 560 | 1.42 | N#Cc1cccc(N2C(=O)C3=C(C4CC4)c4ccsc4C4(C5CC6CC(C5)CC4C6)C3C2=O)c1 (stereo not drawn) [I-(3), N-(3'-cyanophenyl)-4-cyclopropyl-6,7-dihydrospirobenzothiophenecarboxyimide-7,2'-tricyclo[3.3.1.13,7]decane] |  |
| 566 | 1.22 | CC1=C2C(=O)N(c3cccc(C(F)(F)F)c3)C(=O)C2C2(c3sc(-c4ccccc4)cc31)C1CC3CC(C1)CC2C3 (stereo not drawn) [I-(4), 6,7-dihydro-4-methyl-2-phenyl-N-(3'-trifluoromethylphenyl)spirobenzothiophenecarboxyimide-7,2'-tricyclo[3.3.1.13,7]decane] |  |
| 572 | 1.36 | CC1=C2C(=O)N(c3cccc([N+](=O)[O-])c3)C(=O)C2C2(c3sccc31)C1CC3CC(C1)CC2C3 (stereo not drawn) [I-(5), 6,7-dihydro-4-methyl-N-(3'-nitrophenyl)spirobenzothiophenecarboxyimide-7,2'-tricyclo[3.3.1.13,7]decane] |  |
| 525 | 1.06 | CC(=O)c1cccc(N2C(=O)C3=C(C)c4cc(C)oc4C4(C5CCC4CC5)C3C2=O)c1 (stereo not drawn) [I-(6)] |  |
| 530 | 1.20 | CC1=C2C(=O)N(c3cccc(S(C)(=O)=O)c3)C(=O)C2C2(c3occc31)C1CCCC2CCC1 (stereo not drawn) [I-(7)] |  |
| 582 | 1.58 | CC1=C2C(=O)N(c3cc(C#N)cc(C#N)c3)C(=O)C2C2(c3sc(-c4ccccc4)cc31)C1CC3CC(C1)CC2C3 (stereo not drawn) [I-(8), N-(3',5'-dicyanophenyl)-6,7-dihydro-4-methyl-2-phenylspirobenzothiophenecarboxyimide-7,2'-tricyclo[3.3.1.13,7]decane] |  |
| 574 | 1.43 | CC1=C2C(=O)N(c3cccc(F)c3)C(=O)C2C2(c3sc(C)cc31)C1CC3CC(C1)CC2C3 (stereo not drawn) [I-(9)] |  |
| 550 | 1.14 | COC(=O)c1cccc(N2C(=O)C3=C(C)c4ccsc4C4(C5CC6CC(C5)CC4C6)C3C2=O)c1 (stereo not drawn) [I-(10)] |  |
| 563 | 1.18 | CC1=C2C(=O)N(c3cccc(C(=O)c4ccccc4)c3)C(=O)C2C2(c3sccc31)C1CC3CC(C1)CC2C3 (stereo not drawn) [I-(11)] |  |
| 567 | 1.22 | CC1=C2C(=O)N(c3cccc(S(=O)O)c3)C(=O)C2C2(c3sccc31)C1CC3CC(C1)CC2C3 (stereo not drawn) [I-(12)] |  |
| 564 | 1.25 | CC1=C2C(=O)N(c3cccc(S(=O)(=O)c4ccccc4)c3)C(=O)C2C2(c3sccc31)C1CC3CC(C1)CC2C3 (stereo not drawn) [I-(13)] |  |
| 562 | 1.12 | CC1=C2C(=O)N(c3cccc(C(=O)Oc4ccccc4)c3)C(=O)C2C2(c3sccc31)C1CC3CC(C1)CC2C3 (stereo not drawn) [I-(14)] |  |
